Measured values from patent publication US9290451B2 (Hoffmann-La Roche Inc., priority 2011, dated 2016).
Where two headings read alike, the source gives them in different places.

How the values were obtained:
human CB1 receptors = human CB1 receptors (Homo sapiens (Human), UniProt P21554); experiment: cAMP assay, CHO cells expressing human CB1 receptors; type: cell-based
Outline: (§1)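 EC50 values come from a TR-FRET cAMP read-out (standard curve 10 μM–0.13 nM cAMP) after 30 min compound exposure at 30 °C in IBMX (1 mM)-containing Krebs Ringer bicarbonate buffer, using CHO cells carrying human CB1 or CB2 receptors.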

human CB2 receptors = human CB2 receptors (Homo sapiens (Human), UniProt P34972); experiment: cAMP assay, CHO cells expressing human CB2 receptors; type: cell-based
Outline: as §1

[1] = CHO cells expressing human CB1, cAMP, read-out: human CB1 EC50
[2] = CHO cells expressing human CB2, cAMP, read-out: human CB2 EC50

Sequence of human CB2 receptors (P34972 whole entry): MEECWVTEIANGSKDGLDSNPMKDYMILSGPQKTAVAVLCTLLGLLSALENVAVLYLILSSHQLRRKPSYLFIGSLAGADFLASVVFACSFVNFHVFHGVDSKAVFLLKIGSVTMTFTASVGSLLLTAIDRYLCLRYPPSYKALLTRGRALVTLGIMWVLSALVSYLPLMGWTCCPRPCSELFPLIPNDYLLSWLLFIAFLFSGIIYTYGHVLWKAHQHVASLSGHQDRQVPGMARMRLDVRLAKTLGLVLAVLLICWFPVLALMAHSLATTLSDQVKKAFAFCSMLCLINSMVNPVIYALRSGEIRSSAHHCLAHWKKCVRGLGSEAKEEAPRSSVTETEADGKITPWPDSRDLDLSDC
Sequence of human CB1 receptors (P21554 whole entry): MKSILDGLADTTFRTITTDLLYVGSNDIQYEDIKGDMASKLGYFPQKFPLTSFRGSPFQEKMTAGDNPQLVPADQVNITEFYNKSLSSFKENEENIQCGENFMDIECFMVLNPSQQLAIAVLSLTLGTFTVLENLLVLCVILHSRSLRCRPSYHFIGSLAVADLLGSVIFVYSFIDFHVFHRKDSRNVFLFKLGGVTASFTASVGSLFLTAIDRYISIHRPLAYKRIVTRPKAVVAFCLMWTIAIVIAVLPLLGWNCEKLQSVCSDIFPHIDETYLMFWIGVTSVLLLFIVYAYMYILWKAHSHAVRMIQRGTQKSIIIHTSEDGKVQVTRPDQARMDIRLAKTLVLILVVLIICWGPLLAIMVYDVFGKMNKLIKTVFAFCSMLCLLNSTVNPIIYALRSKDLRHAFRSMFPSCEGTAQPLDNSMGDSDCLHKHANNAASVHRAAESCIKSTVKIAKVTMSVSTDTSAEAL

Compound	EC50 (human CB1 receptors; [1]) [nM]	EC50 (human CB2 receptors; [2]) [nM]	EC50 (human CB1 receptors) [nM]	EC50 (human CB2 receptors) [nM]
COCCOC[C@H](CC1CC1)NC(=O)c1ccc(N2CC(F)(F)C2)c(OCC2CC2)n1 [Example 157, 6-Cyclopropylmethoxy-5-(3,3-difluoro-azetidin-1-yl)-pyridine-2-carboxylic acid [(S)-2-cyclopropyl-1-(2-methoxy-ethoxymethyl)-ethyl]-amide]	> 10000	27.4	–	–
O=C(c1ccc(N2CCCC2)c(OCC2CC2)n1)N1CCSCC1 [Example 16, (6-Cyclopropylmethoxy-5-pyrrolidin-1-yl-pyridin-2-yl)-thiomorpholin-4-yl-methanone]	> 10000	16.6	–	–
CCC(CC)(NC(=O)c1ccc(N2CCCC2)c(OCC2CC2)n1)C(=O)O [Example 291, 2-[(6-Cyclopropylmethoxy-5-pyrrolidin-1-yl-pyridine-2-carbonyl)-amino]-2-ethyl-butyric acid]	> 10000	413	–	–
Cc1nc(C(C)(C)NC(=O)c2ccc(C3CCOC3)c(OCC3CC3)n2)no1 (centres unmarked) [Example 124, 6-Cyclopropylmethoxy-5-(tetrahydro-furan-3-yl)-pyridine-2-carboxylic acid [1-methyl-1-(5-methyl-[1,2,4]oxadiazol-3-yl)-ethyl]-amide]	> 10000	79.2	–	–
CC(C)(C)C(NC(=O)c1ccc(C2CC2)c(OCC2CC2)n1)C(N)=O (centres unmarked) [Example 179, N-(1-Amino-3,3-dimethyl-1-oxobutan-2-yl)-5-cyclopropyl-6-(cyclopropylmethoxy)picolinamide]	514	3.8	–	–
Cc1cnc(C(C)(C)NC(=O)c2ccc(C3CC3)c(OCC3CC3)n2)s1 [Example 350, 5-Cyclopropyl-6-cyclopropylmethoxy-pyridine-2-carboxylic acid [1-methyl-1-(5-methyl-thiazol-2-yl)-ethyl]-amide]	> 10000	3.6	–	–
CCC(CC)(NC(=O)c1ccc(C2CC2)c(OCC2CC2)n1)C(=O)N1CCC1 [Example 274, 5-Cyclopropyl-6-cyclopropylmethoxy-pyridine-2-carboxylic acid [1-(azetidine-1-carbonyl)-1-ethyl-propyl]-amide]	351	1.6	–	–
COCCOc1nc(C(=O)N[C@@H](CC(C)C)C(N)=O)ccc1N1CC(F)(F)C1 [Example 158, 5-(3,3-Difluoro-azetidin-1-yl)-6-(2-methoxy-ethoxy)-pyridine-2-carboxylic acid ((S)-1-carbamoyl-3-methyl-butyl)-amide]	> 10000	22.9	–	–
CCOC(=O)C(CC)(CC)NC(=O)c1ccc(C(F)(F)F)c(OCC2CC2)n1 [Example 312, 2-[(6-Cyclopropylmethoxy-5-trifluoromethyl-pyridine-2-carbonyl)-amino]-2-ethyl-butyric acid ethyl ester]	> 10000	2.4	–	–
Cc1ccc(C(=O)N[C@@H](CC(C)C)c2nccs2)nc1OCC1CC1 [Example 64, 6-Cyclopropylmethoxy-5-methyl-pyridine-2-carboxylic acid ((S)-3-methyl-1-thiazol-2-yl-butyl)-amide]	1460	18.9	–	–
CC(C)(NC(=O)c1ccc(C2CC2)c(OCC2CC2)n1)c1nc(N)no1 [Example 309, 5-Cyclopropyl-6-cyclopropylmethoxy-pyridine-2-carboxylic acid [1-(3-amino-[1,2,4]oxadiazol-5-yl)-1-methyl-ethyl]-amide]	> 10000	176	–	–
CNC(=O)[C@@H](NC(=O)c1ccc(C2CC2)c(S(=O)(=O)CC(C)C)n1)C(C)(C)C [Example 364, 5-Cyclopropyl-6-(2-methyl-propane-1-sulfonyl)-pyridine-2-carboxylic acid ((S)-2,2-dimethyl-1-methylcarbamoyl-propyl)-amide]	–	–	> 10000	12.9
COC(=O)[C@H](CC1CC1)NC(=O)c1ccc(C2CC2)c(OCC2CC2)n1 [Example 258, (S)-3-Cyclopropyl-2-[(5-cyclopropyl-6-cyclopropylmethoxy-pyridine-2-carbonyl)-amino]-propionic acid methyl ester]	> 10000	7.1	–	–
